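Growth conditions: 96-well plates. Treatment: test compound, 48 hours, 5 concentrations. Analysis: linear interpolation between bracketing concentrations; unreached endpoints set to highest concentration. The concentration for 50% growth inhibition is given as GI50. At the TGI there is no net growth.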
Columns and labels:
Test in all cases: growth of human tumour cells (NCI), 48 h
[1] = system: 786-0 renal
[2] = system: K-562 leukemia
[3] = system: UACC-257 melanoma
[4] = system: TK-10 renal
[5] = system: SF-539 CNS
[6] = system: NCI/ADR-RES ovarian
[7] = system: OVCAR-8 ovarian
[8] = system: NCI-H522 lung
[9] = system: MALME-3M melanoma
[10] = system: SW-620 colon
[11] = system: NCI-H460 lung
[12] = system: OVCAR-4 ovarian
[13] = system: A498 renal
[14] = system: OVCAR-3 ovarian
[15] = system: MCF7 breast
[16] = system: KM12 colon
[17] = system: SF-295 CNS
[18] = system: HT29 colon
[19] = system: HS 578T breast
[20] = system: SNB-75 CNS
[21] = system: UACC-62 melanoma
[22] = system: SN12C renal
[23] = system: OVCAR-5 ovarian
[24] = system: MDA-MB-231 breast
[25] = system: NCI-H23 lung
[26] = system: HCT-15 colon
[27] = system: NCI-H226 lung
[28] = system: T-47D breast
[29] = system: CAKI-1 renal
[30] = system: A549 NSCLC
[31] = system: RPMI-8226 leukemia
[32] = system: IGROV1 ovarian
[33] = system: M14 melanoma
[34] = system: COLO 205 colon
[35] = system: MOLT-4 leukemia
[36] = system: HOP-92 NSCLC
[37] = system: SR leukemia
[38] = system: RXF 393 renal
[39] = system: DU-145 prostate
[40] = system: SF-268 CNS
[41] = system: HCT-116 colon
[42] = system: SNB-19 CNS
[43] = system: MDA-MB-435
[44] = system: HCC-2998 colon
[45] = system: LOX IMVI melanoma
[46] = system: SK-OV-3 ovarian
[47] = system: HOP-62 NSCLC
[48] = system: ACHN renal
[49] = system: BT-549 breast
[50] = system: HL-60(TB) leukemia
[51] = system: U251 CNS
[52] = system: SK-MEL-2 melanoma
[53] = system: UO-31 renal
[54] = system: SK-MEL-5 melanoma
[55] = system: PC-3 prostate
[56] = system: CCRF-CEM leukemia
[57] = system: SK-MEL-28 melanoma
[58] = system: EKVX NSCLC

Compound: CC[C@@H](C)Nc1cc(C(=O)NC2CC3CCC(C2)N3c2ccc(C(=O)C3CC3)cn2)c(C)cc1C(N)=O (some centres undefined)
- GI50 [1]: 152 nM
- TGI [1]: > 100000 nM
- GI50 [2]: 37.8 nM
- TGI [2]: > 100000 nM
- GI50 [3]: 40 nM
- TGI [3]: 32000 nM
- GI50 [4]: 38.7 nM
- TGI [4]: 89000 nM
- GI50 [5]: 67.9 nM
- TGI [5]: > 100000 nM
- GI50 [6]: 1060 nM
- TGI [6]: > 100000 nM
- GI50 [7]: 47 nM
- TGI [7]: > 100000 nM
- GI50 [8]: 45.1 nM
- TGI [8]: 41800 nM
- GI50 [9]: 38.3 nM
- TGI [9]: > 75500 nM
- GI50 [10]: 32.3 nM
- TGI [10]: > 100000 nM
- GI50 [11]: 29.9 nM
- TGI [11]: > 54200 nM
- GI50 [12]: 1310 nM
- TGI [12]: > 100000 nM
- GI50 [13]: 103 nM
- TGI [13]: > 100000 nM
- GI50 [14]: 67.2 nM
- TGI [14]: > 88100 nM
- GI50 [15]: < 17.2 nM
- TGI [15]: > 59600 nM
- GI50 [16]: 23.9 nM
- TGI [16]: 88.4 nM
- GI50 [17]: 28.8 nM
- TGI [17]: > 100000 nM
- GI50 [18]: 11.1 nM
- TGI [18]: 15900 nM
- GI50 [19]: 186 nM
- TGI [19]: > 100000 nM
- GI50 [20]: 192 nM
- TGI [20]: > 100000 nM
- GI50 [21]: 36 nM
- TGI [21]: 12100 nM
- GI50 [22]: 52 nM
- TGI [22]: > 100000 nM
- GI50 [23]: 70.6 nM
- TGI [23]: > 100000 nM
- GI50 [24]: 53.8 nM
- TGI [24]: > 100000 nM
- GI50 [25]: 58.9 nM
- TGI [25]: > 100000 nM
- GI50 [26]: 31.7 nM
- TGI [26]: > 100000 nM
- GI50 [27]: 56.8 nM
- TGI [27]: 51100 nM
- GI50 [28]: 37.8 nM
- TGI [28]: 36000 nM
- GI50 [29]: 59.7 nM
- TGI [29]: > 100000 nM
- GI50 [30]: 34.3 nM
- TGI [30]: > 100000 nM
- GI50 [31]: 53.8 nM
- TGI [31]: > 74300 nM
- GI50 [32]: 43.6 nM
- TGI [32]: > 100000 nM
- GI50 [33]: 48.9 nM
- TGI [33]: > 84000 nM
- GI50 [34]: 18.2 nM
- TGI [34]: 11600 nM
- GI50 [35]: 37.4 nM
- TGI [35]: 31000 nM
- GI50 [36]: 42.2 nM
- TGI [36]: 599 nM
- GI50 [37]: 18.9 nM
- TGI [37]: > 47600 nM
- GI50 [38]: 51.6 nM
- TGI [38]: > 100000 nM
- GI50 [39]: 66.3 nM
- TGI [39]: > 62900 nM
- GI50 [40]: 357 nM
- TGI [40]: > 100000 nM
- GI50 [41]: 30 nM
- TGI [41]: > 100000 nM
- GI50 [42]: 60.4 nM
- TGI [42]: > 100000 nM
- GI50 [43]: 39.1 nM
- TGI [43]: > 39300 nM
- GI50 [44]: 39.5 nM
- TGI [44]: 13500 nM
- GI50 [45]: 30.1 nM
- TGI [45]: 102 nM
- GI50 [46]: < 11.4 nM
- TGI [46]: > 100000 nM
- GI50 [47]: 59.8 nM
- TGI [47]: > 100000 nM
- GI50 [48]: 44.1 nM
- TGI [48]: > 100000 nM
- GI50 [49]: 5540 nM
- TGI [49]: > 84900 nM
- GI50 [50]: 32.9 nM
- TGI [50]: 88900 nM
- GI50 [51]: 66.9 nM
- TGI [51]: > 100000 nM
- GI50 [52]: 66.1 nM
- TGI [52]: 19000 nM
- GI50 [53]: 47.9 nM
- TGI [53]: > 100000 nM
- GI50 [54]: 59.9 nM
- TGI [54]: 8350 nM
- GI50 [55]: 46.9 nM
- TGI [55]: > 100000 nM
- GI50 [56]: 48.2 nM
- TGI [56]: > 100000 nM
- GI50 [57]: 51.9 nM
- TGI [57]: > 100000 nM

Compound: COC(=O)c1ccc2c(c1)c1c(C)c3ccncc3c(C)c1n2C
- GI50 [1]: 268 nM
- TGI [1]: 18000 nM
- GI50 [2]: 200 nM
- TGI [2]: > 100000 nM
- GI50 [4]: 890 nM
- TGI [4]: 70300 nM
- GI50 [58]: 274 nM
- TGI [58]: 36200 nM
- GI50 [5]: 332 nM
- TGI [5]: 45100 nM
- GI50 [6]: 411 nM
- TGI [6]: 62700 nM
- GI50 [7]: 121 nM
- TGI [7]: > 100000 nM
- GI50 [8]: 538 nM
- TGI [8]: 32000 nM
- GI50 [9]: 201 nM
- TGI [9]: 11200 nM
- GI50 [10]: 65.8 nM
- TGI [10]: 58300 nM
- GI50 [11]: 296 nM
- TGI [11]: 12600 nM
- GI50 [12]: 396 nM
- TGI [12]: 30800 nM
- GI50 [13]: 583 nM
- TGI [13]: 13700 nM
- GI50 [14]: 536 nM
- TGI [14]: 47200 nM
- GI50 [15]: 267 nM
- TGI [15]: 1770 nM
- GI50 [16]: 262 nM
- TGI [16]: > 100000 nM
- GI50 [17]: 64.7 nM
- TGI [17]: 7480 nM
- GI50 [18]: 133 nM
- TGI [18]: > 100000 nM
- GI50 [19]: 561 nM
- TGI [19]: > 100000 nM
- GI50 [20]: 104 nM
- TGI [20]: 15900 nM
- GI50 [21]: 191 nM
- TGI [21]: 2630 nM
- GI50 [22]: 214 nM
- TGI [22]: > 100000 nM
- GI50 [23]: 718 nM
- TGI [23]: > 100000 nM
- GI50 [24]: 391 nM
- TGI [24]: > 100000 nM
- GI50 [25]: 304 nM
- TGI [25]: 16100 nM
- GI50 [26]: 215 nM
- TGI [26]: 21200 nM
- GI50 [27]: 352 nM
- TGI [27]: 13200 nM
- GI50 [28]: 661 nM
- TGI [28]: > 100000 nM
- GI50 [30]: 484 nM
- TGI [30]: > 100000 nM
- GI50 [31]: 259 nM
- TGI [31]: 25100 nM
- GI50 [32]: 80.1 nM
- TGI [32]: > 100000 nM
- GI50 [33]: 453 nM
- TGI [33]: 36300 nM
- GI50 [34]: 113 nM
- TGI [34]: > 100000 nM
- GI50 [35]: 99.2 nM
- TGI [35]: 44700 nM
- GI50 [36]: 378 nM
- TGI [36]: > 100000 nM
- GI50 [37]: 57.5 nM
- TGI [37]: 3390 nM
- GI50 [39]: 313 nM
- TGI [39]: > 100000 nM
- GI50 [40]: 114 nM
- TGI [40]: > 100000 nM
- GI50 [41]: 49.5 nM
- TGI [41]: > 100000 nM
- GI50 [42]: 206 nM
- TGI [42]: > 100000 nM
- GI50 [43]: 437 nM
- TGI [43]: 22900 nM
- GI50 [44]: 3860 nM
- TGI [44]: > 100000 nM
- GI50 [45]: 88.7 nM
- TGI [45]: 10800 nM
- GI50 [46]: 471 nM
- TGI [46]: > 100000 nM
- GI50 [47]: 106 nM
- TGI [47]: > 100000 nM
- GI50 [48]: 51.9 nM
- TGI [48]: > 100000 nM
- GI50 [49]: 925 nM
- TGI [49]: 36200 nM
- GI50 [50]: 1130 nM
- TGI [50]: 39400 nM
- GI50 [51]: 322 nM
- TGI [51]: > 100000 nM
- GI50 [52]: 750 nM
- TGI [52]: 31600 nM
- GI50 [53]: 71.7 nM
- TGI [53]: 77500 nM
- GI50 [54]: 232 nM
- TGI [54]: 912 nM
- GI50 [55]: 300 nM
- TGI [55]: > 100000 nM
- GI50 [56]: 518 nM
- TGI [56]: > 100000 nM
- GI50 [57]: 441 nM
- TGI [57]: 50100 nM

Source: PubChem BioAssay (NCI)
